This passage reports EC50 results from patent EP4733303A1, “MUSCARINIC M4 RECEPTOR AGONIST AND USE THEREOF” (Haisco Pharmaceutical Group Co., Ltd., priority 2023, dated 2024).

In this experiment the target is T1, M4 receptor (Homo sapiens, UniProt P08173).
T1 construct: expressed in transfected cells; host or cells: CHO (M4-CHO cells)
T1 sequence (P08173 1-479): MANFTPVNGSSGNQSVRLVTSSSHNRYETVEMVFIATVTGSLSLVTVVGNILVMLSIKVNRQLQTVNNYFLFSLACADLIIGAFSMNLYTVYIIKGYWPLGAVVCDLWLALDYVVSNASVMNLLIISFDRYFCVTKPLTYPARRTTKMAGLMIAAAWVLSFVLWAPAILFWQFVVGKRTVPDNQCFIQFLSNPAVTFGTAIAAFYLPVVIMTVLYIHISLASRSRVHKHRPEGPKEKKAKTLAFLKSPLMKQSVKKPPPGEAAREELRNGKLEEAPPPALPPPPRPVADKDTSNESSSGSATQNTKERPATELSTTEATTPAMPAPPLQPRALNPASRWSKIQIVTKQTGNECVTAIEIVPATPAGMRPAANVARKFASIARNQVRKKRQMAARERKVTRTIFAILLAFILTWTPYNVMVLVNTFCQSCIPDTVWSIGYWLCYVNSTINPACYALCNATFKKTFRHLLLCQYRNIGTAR
Put plainly: PAM agonistic activity of compound on M4 receptor (FLIPR Calcium 6 assay in M4-CHO cells). The conditions noted are these: with acetylcholine (Ach), final concentration 3 nM. The class given is cell-based. How it is done:
• 1). Cell plating: M4-CHO cells were digested, collected, and resuspended. After cell counting, the cell suspension was seeded into a 384-well cell plate at a density of: 1.2 × 10^4 cells/25 µL/well. The cell plate was then cultured in a 37°C, 5% CO2 incubator for about 16-20 h. • 2). Day 2: Assay Buffer was prepared according to the instructions of the FLIPR Calcium 6 Assay Kit. Component A (20×) was thawed to room temperature and diluted with the Assay Buffer to prepare a loading buffer (1×), which was stored at room temperature until use. • 3). The culture medium was removed from the cell plate. 40 µL of the loading buffer (1×) was quickly added to each well. The cell plate was then centrifuged and incubated at 37°C in the dark for 120 min. • 4). Working solutions of the positive control compound and the test compounds were prepared. An acetylcholine (Ach) agonist compound solution was prepared (final concentration: 3 nM). The PAM compound and the Ach agonist solution were mixed at a 1 : 1 ratio, and the mixture was transferred into a 384-well compound source plate at 20 µL per well. • 5). The cell plate, the compound source plate, and the pipette tips were placed into the corresponding positions within the FLIPR instrument. 10 µL of the diluted compound from step 4 was added into each experimental well using the FLIPR Tetra. Data was collected at the wavelength of 515 nm-575 nm. • 6). The signal values were plotted against the compound concentrations. Nonlinear regression analysis was performed using GraphPad Prism software for curve fitting and EC50 calculation.
The experimental results are shown in Table 1, where A represents EC50 < […]; B represents 100 nM ≤ EC50 < 500 nM, and C represents 500 nM ≤ EC50. Table 1. Agonistic activity of compounds on M4 receptor
As a reminder, the EC50 is the concentration needed to bring the measured effect to its halfway point. For `Cc1cc(C)c2c(n1)CN(C(=O)CC1CN(c3ccnc(C(=O)NC4CC4)c3)C1)C2` [Compound 38], the EC50 was < 100 nM. Regarding `Cc1cc(C)c2c(n1)CN(C(=O)CC1CN(c3ccnc(-c4noc(C(F)(F)F)n4)c3)C1)C2` [Compound 39], the EC50 is < 100 nM. Consider `Cc1cnn(-c2cc(N3CC(CC(=O)N4Cc5nc(C)cc(C)c5C4)C3)ccn2)c1` [Compound 40], for which the EC50 was < 100 nM.

Consider `Cc1cc(C)c2c(n1)CN(C(=O)CC1CN(c3ccnc(-n4c(C)nnc4C(F)(F)F)c3)C1)C2` [Compound 43], for which the EC50 was < 100 nM.

Turning to `Cc1cc(C)c2c(n1)CN(C(=O)CC1CN(c3ccnc(-c4nc(C(F)(F)F)nn4C)c3)C1)C2` [Compound 44], the EC50 is < 100 nM.

With `Cc1cc(C)c2c(n1)CN(C(=O)CC1CN(c3ccnc(-n4cc(C(F)(F)F)nc4C)c3)C1)C2` [Compound 46], the EC50 is < 100 nM. Under `Cc1cc(C)c2c(n1)CN(C(=O)CC1CN(c3ccnc(-n4cnc(C(F)(F)F)n4)c3)C1)C2` [Compound 47] stands < 100 nM; under `Cc1cc(C)c2c(n1)CN(C(=O)CC1CN(c3cc(-n4ccc(C)n4)ncn3)C1)C2` [Compound 48], < 100 nM; under `Cc1cc(C)c2c(n1)CN(C(=O)CC1CN(c3ccnc(OC4CC4)c3)C1)C2` [Compound 49], < 100 nM. Take `Cc1ccn(-c2cc(N3CC(CC(=O)N4Cc5nc(C)cc(C)c5C4)C3)ccn2)c1` [Compound 50]: the EC50 is < 100 nM. Consider `Cc1cc(C)c2c(n1)CN(C(=O)CC1CN(c3ccnc(O[C@@H]4CCOC4)c3)C1)C2` [Compound 51], for which the half-maximal effective concentration (EC50) was < 100 nM. Take `Cc1cc(C)c2c(n1)CN(C(=O)CC1CN(c3ccnc(O[C@H]4CCOC4)c3)C1)C2` [Compound 52]: the EC50 is < 100 nM. `Cc1cc(C)c2c(n1)CN(C(=O)CC1CN(c3ccnc(Oc4cnn(C)c4)c3)C1)C2` [Compound 53]: the EC50 was < 100 nM. For the compound `Cc1cc(C)c2c(n1)CN(C(=O)CC1CN(c3ccnc(-n4cnc(C)n4)c3)C1)C2` [Compound 54], the EC50 was < 100 nM.

Take `Cc1cc(C)c2c(n1)CN(C(=O)CC1CN(c3ccnc(-n4cc(C)c(C)n4)c3)C1)C2` [Compound 55]: the EC50 was < 100 nM. As for `Cc1cc(C)c2c(n1)CN(C(=O)CC1CN(c3ccnc(-n4cccn4)c3)C1)C2` [Compound 56], the EC50 was < 100 nM. Turning to `Cc1cc(C)c2c(n1)CN(C(=O)CC1CN(c3ccnc(-n4cncn4)c3)C1)C2` [Compound 58], the EC50 is < 100 nM. Take `Cc1nc2c(c(N3CCC3)n1)CN(C(=O)CC1CN(c3ccnc(-n4nccc4C)c3)C1)C2` [Compound 62]: the EC50 was < 100 nM. On to `Cc1cc(C)c2c(n1)CN(C(=O)CC1CN(c3ccnc(-c4ccc5ccnn5c4)c3)C1)C2` [Compound 63], for which the EC50 is < 100 nM.

`Cc1cc(C)c2c(n1)CN(C(=O)CC1CN(c3ccnc(NC4CC(F)(F)C4)c3)C1)C2` [Compound 67]: the EC50 is < 100 nM. For the compound `Cc1cc(C)c2c(n1)CN(C(=O)CC1CN(c3ccnc(-n4cc(C)nc4C)c3)C1)C2` [Compound 75], the EC50 is < 100 nM. As for `Cc1cc(C)c2c(n1)CN(C(=O)CC1CN(c3ccnc(-n4ccc(F)n4)c3)C1)C2` [Compound 76], the half-maximal effective concentration (EC50) was < 100 nM. With `Cc1coc(-c2cc(N3CC(CC(=O)N4Cc5nc(C)cc(C)c5C4)C3)ccn2)n1` [Compound 78], the EC50 was < 100 nM. Consider `Cc1cc(CO)nc2c1CN(C(=O)CC1CN(c3ccnc(OC4CC(F)(F)C4)c3)C1)C2` [Compound 81], for which the EC50 was < 100 nM. Consider `Cc1cc(C)c2c(n1)CN(C(=O)CC1CN(c3ccnc(OC4CCC(F)(F)C4)c3)C1)C2` (centres unmarked) [Compound 83], for which the 50% effective concentration (EC50) was < 100 nM.

Consider `Cc1ccn(-c2cc(N3CC(CC(=O)N4Cc5nc(CO)cc(C)c5C4)C3)ccn2)n1` [Compound 84], for which the 50% effective concentration (EC50) is < 100 nM.

Regarding `Cc1ccn(-c2cc(N3CC(CC(=O)N4Cc5nc(COC6COC6)cc(C)c5C4)C3)ccn2)n1` [Compound 85], the EC50 was < 100 nM. As to `Cc1ccn(-c2cc(N3CC(CC(=O)N4Cc5nc(C)c6c(c5C4)CCC6)C3)ccn2)n1` [Compound 87], the EC50 was < 100 nM. Turning to `Cc1ccn(-c2cc(N3CC(CC(=O)N4Cc5nc(C)nc(N(C)C)c5C4)C3)ccn2)n1` [Compound 90], the EC50 was < 100 nM. Consider `Cc1ccn(-c2cc(N3CC(CC(=O)N4Cc5nc(COC6CC6)cc(C)c5C4)C3)ccn2)n1` [Compound 91], for which the EC50 is < 100 nM. As to `Cc1ccn(-c2cc(N3CC(CC(=O)N4Cc5nc6c(c(C)c5C4)CCC6)C3)ncn2)n1` [Compound 92], the EC50 is < 100 nM. Next, `Cc1c2c(nc3c1CN(C(=O)CC1CN(c4ccnc(OC5CCOC5)c4)C1)C3)CCC2` (centres unmarked) [Compound 93]: < 100 nM; `Cc1c2c(nc3c1CN(C(=O)CC1CN(c4ccc5c(c4)CCC5=O)C1)C3)CCC2` [Compound 94]: < 100 nM; `Cc1c2c(nc3c1CN(C(=O)CC1CN(c4ccnc(-n5cccn5)c4)C1)C3)CCC2` [Compound 95]: < 100 nM. Under `Cc1cc(C)c2c(n1)CN(C(=O)CC1CN(c3ccnc(-c4nc(C)nn4C)c3)C1)C2` [Compound 96] stands < 100 nM; under `Cc1cc(C)c2c(n1)CN(C(=O)CC1CN(c3ccnc(-c4ncnn4C)c3)C1)C2` [Compound 97], < 100 nM; under `Cc1ccn(-c2cc(N3CC(CC(=O)N4Cc5nc(C6CCOCC6)cc(C)c5C4)C3)ccn2)n1` [Compound 98], < 100 nM. On to `Cc1ccn(-c2cc(N3CC(CC(=O)N4Cc5c(C)cc(=O)n(C)c5C4)C3)ccn2)n1` [Compound 99], for which the EC50 was < 100 nM. Take `Cc1cc(=O)n(C)c2c1CN(C(=O)CC1CN(c3ccnc(C(F)(F)F)c3)C1)C2` [Compound 100]: the EC50 was < 100 nM. Consider `Cc1cc(=O)n(C)c2c1CN(C(=O)CC1CN(c3ccnc(OC4CC(F)(F)C4)c3)C1)C2` [Compound 101], for which the EC50 is < 100 nM.

Take `Cc1cc(C)c2c(n1)CN(C(=O)CC1CN(c3cnnc(-n4ccc(C)n4)c3)C1)C2` [Compound 102]: the EC50 was < 100 nM. As to `Cc1cc(C#N)c(F)c2c1CN(C(=O)CC1CN(c3ccnc(OC4CC(F)(F)C4)c3)C1)C2` [Compound 103], the EC50 was < 100 nM. On to `Cc1nc(C#N)c2c(n1)CN(C(=O)CC1CN(c3ccnc(OC4CC(F)(F)C4)c3)C1)C2` [Compound 107], for which the EC50 was < 100 nM. Next, `Cc1cc(C)c2c(n1)CN(C(=O)CC1CN(c3ccnc(-n4cnnc4)c3)C1)C2` [Compound 108]: < 100 nM. Under `Cc1cc(-c2cnn(C)c2)nc2c1CN(C(=O)CC1CN(c3ccnc(C(F)(F)F)c3)C1)C2` [Compound 109] stands < 100 nM; under `Cc1cc(-c2ccn(C)n2)nc2c1CN(C(=O)CC1CN(c3ccnc(C(F)(F)F)c3)C1)C2` [Compound 112], < 100 nM. Consider `Cc1nc(C#N)nc2c1CN(C(=O)CC1CN(c3ccnc(OC4CC(F)(F)C4)c3)C1)C2` [Compound 115], for which the EC50 is < 100 nM. With `Cc1c2c(n(C)c(=O)c1Cl)CN(C(=O)CC1CN(c3ccnc(OC4CC(F)(F)C4)c3)C1)C2` [Compound 116], the EC50 was < 100 nM. Regarding `Cc1cc(=O)n(C)c2c1CN(C(=O)CC1CN(c3ccnc(O[C@H]4CCOC4)c3)C1)C2` [Compound 117], the EC50 is < 100 nM. In the case of `Cc1cc(=O)n(C)c2c1CN(C(=O)CC1CN(c3ccnc(O[C@@H]4CCOC4)c3)C1)C2` [Compound 118], the EC50 was < 100 nM.
